Source: US7256215B2, “Crystals of 5-hydroxycarbamimidoyl-2-hydroxybenzenesulfonamide derivative” (Kissei Pharmaceutical Co., Ltd., priority 2002, dated 2007)
Like-named read-outs stand apart in the source and are kept apart here.

Legend:
[1] = Saturated water solubility; assay type: physicochemical; conditions: for solubility: thermodynamic from solid, water
Method: (Saturated Water Solubility) Approximately 40 mg of test substances is placed in a vessel, and approximately 15 mL of water is added thereto to suspend. The suspensions are warmed at 37° C. with stirring, and approximately 1 mL of aliquots is collected with time. Each of aliquots is filtered through a 0.45 μm filter. Thereafter, 500 μL is taken accurately from the filtrate, and 500 μL of a mixed solvent of water/acetonitrile (1/1) is added thereto to prepare a test solution. Five μL of the test solution is analyzed by a high performance liquid chromatography method according to the following conditions. Among water solubilities at each point of test solutions, the highest concentration is estimated as a saturated water solubility. HPLC Condition: • Detection wavelength; 225 nm • Column; Inertsil ODS-3, 5 μm, 4.6 mm I.D.×250 mm • Column temperature; 30° C. • Mobile phase; • 0.02 mol/L phosphate buffer (pH 3.0): acetonitrile mixed solvent • 0→30 min; 42:58 • Flow rate; […] • Measurement time; 30 min

[2] = test system: prothrombin time (PT); assay: Prothrombin time (PT) in plasma of orally dosed rats; assay type: in vivo, Male Wistar rats; conditions: PT after administration / before administration; rat plasma, oral, 6.0 mg/mL suspension, 5.0 mL/kg, 30 minutes
Method: (Measurement of Activated Blood Coagulation Factor X Inhibitory Activity and Prothrombin Time (PT)) Male Wistar rats aged 6-9 weeks (SLC) fasted overnight were used. Test substances were suspended in 0.5% methylcellulose solution at the concentration of 6.0 mg/mL. Then 5.0 mL/kg of those was orally administrated into the rats. Then, 30 minutes before and after the administration of the test substances, citrated (1:10 dilution, 3.13% sodium citrate) bloods were collected from the jugular vein. Plasma samples were obtained by centrifugation. Effects of test substances on activated blood coagulation factor X and prothrombin time (PT) were investigated using the plasma samples according to the following procedures. 2) Prothrombin Time (PT). Fifty μL of plasma was put in the process tube and then incubated at 37° C. One minute later, 100 mu L of plasma PT reagent (Boehringer Mannheim) prewarmed at 37° C. was added into the mixture. PT was measured with a coagulometer (ST4, Boehringer Mannheim). The ratio of PT at each time point after administration of the test substance to that of before administration was used as the index of anticoagulation activity.

[3] = Oral bioavailability (statement, no method given); assay type: in vivo
[4] = Storage under ordinary conditions, retention of crystalline form; assay type: physicochemical; conditions: 25° C./60% relative humidity, long period
[5] = molecular target: T1, activated blood coagulation factor X (Homo sapiens, UniProt P00742); assay: Activated blood coagulation factor X inhibitory activity in plasma of orally dosed rats; assay type: in vivo, Male Wistar rats; parameters: purchased Calbiochem; conditions: rat plasma 30 minutes after oral administration; 6.0 mg/mL suspension in 0.5% methylcellulose, 5.0 mL/kg
Method: (Measurement of Activated Blood Coagulation Factor X Inhibitory Activity and Prothrombin Time (PT))
Male Wistar rats aged 6-9 weeks (SLC) fasted overnight were used. Test substances were suspended in 0.5% methylcellulose solution at the concentration of 6.0 mg/mL. Then 5.0 mL/kg of those was orally administrated into the rats. Then, 30 minutes before and after the administration of the test substances, citrated (1:10 dilution, 3.13% sodium citrate) bloods were collected from the jugular vein. Plasma samples were obtained by centrifugation. Effects of test substances on activated blood coagulation factor X and prothrombin time (PT) were investigated using the plasma samples according to the following procedures.
1) Activated Blood Coagulation Factor X Inhibitory Activity
2.5 μL of plasma sample, 200 μL of 100 mM tris-200 mM NaCl buffer (pH 8.4) and 10 μL of 0.06 U/mL human activated blood coagulation factor X (Calbiochem) in gelatin-glycine buffer were poured into 96 well microplate. […] The reaction was terminated with the addition of 50 μL of 60% acetic acid and absorbance (405 nm) was measured by a microplate reader (SPECTRAmax250, Molecular Devices). […] The inhibitory % of plasma sample was calculated from absorbance of the control as 100% and this value was used as the index of anti-activated blood coagulation factor X activity in plasma.
Target sequence in this assay (P00742 235-488 limits assumed): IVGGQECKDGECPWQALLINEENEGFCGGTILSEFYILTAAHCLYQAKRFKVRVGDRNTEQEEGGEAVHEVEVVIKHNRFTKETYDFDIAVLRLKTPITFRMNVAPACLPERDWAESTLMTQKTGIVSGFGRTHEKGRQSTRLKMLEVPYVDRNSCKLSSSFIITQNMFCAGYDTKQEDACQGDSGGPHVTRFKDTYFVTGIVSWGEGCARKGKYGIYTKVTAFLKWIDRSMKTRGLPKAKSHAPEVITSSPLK
Target sequence in this assay (P00742 41-179 limits assumed): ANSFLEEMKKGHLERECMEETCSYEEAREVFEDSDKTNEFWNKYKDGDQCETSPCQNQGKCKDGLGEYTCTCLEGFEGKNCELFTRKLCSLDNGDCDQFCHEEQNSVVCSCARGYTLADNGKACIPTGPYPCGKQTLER

[6] = Storage stability test (residual rate by HPLC); assay type: physicochemical; conditions: hydrochloride; for Residual Rate (%): storage at 40° C./90% relative humidity for two months, HPLC; for Storage stability (in words): stored for a long period
Method: (Storage Stability Test) Stability test was carried out under a storage condition of 40° C./90% relative humidity for two months for test substances. The residual rates of test substances were determined by HPLC according to the following conditions. HPLC Condition: • Detection wavelength; 225 nm • Column; CAPCELL PAK C18, MG 5 μm, 3.0 mm I.D.×250 mm • Column temperature; 35° C. • Mobile phase; • 0.02 mol/L phosphate buffer (pH 6.0): acetonitrile mixed solvent • 0→20 min; 42:58 • 20→40 min; 42:58→70:30 • 40→45 min; 70:30 • Flow rate; 0.5 mL/min

[7] = molecular target: T1, activated blood coagulation factor X; assay: Inhibitory activity against activated blood coagulation factor X (statement, no method given); assay type: biochemical
Target sequence in this assay (P00742 235-488 limits assumed): as the sequence (P00742 235-488 limits assumed) above
Target sequence in this assay (P00742 41-179 partner limits assumed): as the sequence (P00742 41-179 limits assumed) above

CCCCOC(=O)COc1cc(-c2ccccc2S(C)(=O)=O)ccc1CCNS(=O)(=O)c1cc(C(=N)NO)ccc1O.Cl [Example 1, n-butyl[4-[2-[2-hydroxy-5-(N-hydroxycarbamimidoyl)benzenesulfonylamino]ethyl]-2′-methanesulfonylbiphenyl-3-yloxy]acetate hydrochloride]
Water solubility (in words) [1]: highly water-soluble | solubility ([1]; 37° C., highest concentration over time, read-out: Saturated water solubility): 1600 µg/mL | Ratio of PT [2]: 1.50 | Oral bioavailability (in words) [3]: good oral bioavailability | Stability of crystalline form on storage (in words) [4]: without changing its crystalline form | inhibition at 6000 µg/mL (stock) [5]: 58.2% | Residual Rate (%) [6]: 99.0% | Storage stability (in words) ([6]; listed as crystalline form B): good storage stabilities

CCCCOC(=O)COc1cc(-c2ccccc2S(C)(=O)=O)ccc1CCNS(=O)(=O)c1cc(C(=N)NO)ccc1O.Cl [Reference Example 1, n-butyl[4-[2-[2-hydroxy-5-(N-hydroxycarbamimidoyl)benzenesulfonylamino]ethyl]-2′-methanesulfonylbiphenyl-3-yloxy]acetate hydrochloride]
Residual Rate (%) [6]: 96.8% | Storage stability (in words) ([6]; listed as crystalline form A): unsatisfactory stabilities

CCCCOC(=O)COc1cc(-c2ccccc2S(C)(=O)=O)ccc1CCNS(=O)(=O)c1cc(C(=N)NO)ccc1O.Cl.O [Reference Example 2, n-butyl[4-[2-[2-hydroxy-5-(N-hydroxy-carbamimidoyl)benzenesulfonylamino]ethyl]-2′-methanesulfonylbiphenyl-3-yloxy]acetate hydrochloride monohydrate]
Water solubility (in words) [1]: poor water solubility | solubility ([1]; 37 °C): 270 µg/mL

CCCCOC(=O)COc1cc(-c2ccccc2S(C)(=O)=O)ccc1CCNS(=O)(=O)c1cc(C(=N)NO)ccc1O.Cl [formula (I), n-Butyl[4-[2-[2-hydroxy-5-(N-hydroxycarbamimidoyl)benzenesulfontylamino]ethyl]-2′-methanesulfonylbiphenyl-3-yloxy]acetate hydrochloride]
Inhibitory activities against activated blood coagulation factor X (in words) [7]: excellent inhibitory activities
